In ChEMBL document CHEMBL1141099, “Discovery of N-(2,6-dimethylphenyl)-substituted semicarbazones as anticonvulsants: hybrid pharmacophore-based design” (2005):

Tests used:
Rattus norvegicus [1] = organism: Rattus norvegicus; assay: Ex vitro percentage inhibition activity against GABA-T enzyme at a concentration of 1.25 uM after 6 h; format: functional
Mus musculus [2] = assay: Minimum dose required for anticonvulsant activity when given i.p., at 2 hr in mice upon subcutaneous strychnine seizure; format: functional
Rattus norvegicus [3] = organism: Rattus norvegicus; assay: Ex vitro percentage inhibition activity against GABA-T enzyme at a concentration of 1.25 uM after 4.5 h; format: functional
Rattus norvegicus [4] = assay: Effective dose required for anticonvulsant activity when given i.p., at 2 hr in rat upon maximal electroshock seizure; format: functional; conditions: ip
Mus musculus [5] = assay: Post treatment activity score for CNS study using a actophotometer at a dose of 100 mg/Kg after 1 hr when given i.p., in mice (No. of animals 6); Control (24h before) 245
Rattus norvegicus [6] = organism: Rattus norvegicus; assay: Protective index between effective dose and toxic dose in rat; format: functional
Mus musculus [7] = assay: Minimum dose required for anticonvulsant activity when given i.p., at 4 hr in mice upon maximal electroshock seizure; format: functional
Mus musculus [8] = assay: Post treatment immobility time for CNS study using Porsolt's swimpool test at a dose of 100 mg/Kg after 1 hr when given i.p., in mice (No. of animals 6); Control (24h before) 182
Rattus norvegicus [9] = organism: Rattus norvegicus; assay: Ex vitro percentage inhibition activity against GABA-T enzyme at a concentration of 1.25 uM after 3 h; format: functional
Rattus norvegicus [10] = assay: Toxic dose observed for anticonvulsant activity when given i.p., at 2 hr in rat upon neurotoxicity seizure; format: functional; conditions: ip
[11] = target: 4-aminobutyrate aminotransferase, mitochondrial (Rattus norvegicus) (UniProt P50554); assay: In vitro percentage inhibition activity against GABA-T enzyme at a concentration of 0.625 uM after 6 h
4-aminobutyrate aminotransferase, mitochondrial (Rattus norvegicus), sequence (P50554 28-500 limits assumed): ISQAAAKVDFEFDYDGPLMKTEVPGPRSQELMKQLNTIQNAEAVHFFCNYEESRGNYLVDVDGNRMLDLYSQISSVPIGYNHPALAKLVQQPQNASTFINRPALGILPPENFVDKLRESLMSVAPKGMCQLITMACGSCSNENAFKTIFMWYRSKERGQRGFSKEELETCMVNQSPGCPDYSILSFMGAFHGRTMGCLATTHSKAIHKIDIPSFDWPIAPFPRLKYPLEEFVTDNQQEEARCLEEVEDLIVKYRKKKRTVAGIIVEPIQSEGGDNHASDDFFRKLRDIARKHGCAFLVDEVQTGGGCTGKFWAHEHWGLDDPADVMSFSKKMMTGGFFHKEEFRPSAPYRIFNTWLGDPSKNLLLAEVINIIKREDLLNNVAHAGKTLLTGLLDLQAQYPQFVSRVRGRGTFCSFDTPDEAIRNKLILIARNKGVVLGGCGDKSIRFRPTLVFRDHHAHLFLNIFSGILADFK

Mus musculus [12] = assay: Minimum dose required for anticonvulsant activity when given i.p., at 0.5 hr in mice upon neurotoxicity seizure using rotarod test; format: functional
Mus musculus [13] = assay: Minimum dose required for anticonvulsant activity when given i.p., at 0.5 hr in mice upon subcutaneous pentylenetetrazole seizure; format: functional
Rattus norvegicus [14] = assay: Number of rats protected at a dose of 30 mg/Kg when given oral at 4 hr upon maximal electroshock seizure; Total number of rats = 4; format: functional
Rattus norvegicus [15] = assay: Number of rats protected at a dose of 30 mg/Kg when given oral at 0.5 hr upon maximal electroshock seizure; Total number of rats = 4; format: functional
Rattus norvegicus [16] = assay: Number of rats protected at a dose of 30 mg/Kg when given oral at 2 hr upon maximal electroshock seizure; Total number of rats = 4; format: functional
Mus musculus [17] = assay: Minimum dose required for anticonvulsant activity when given i.p., at 0.5 hr in mice upon maximal electroshock seizure; format: functional
Mus musculus [18] = assay: Minimum dose required for anticonvulsant activity when given i.p., at 0.5 hr in mice upon subcutaneous strychnine seizure; format: functional
[19] = target: 4-aminobutyrate aminotransferase, mitochondrial (Rattus norvegicus) (UniProt P50554); assay: In vitro percentage inhibition activity against GABA-T enzyme at a concentration of 0.625 uM after 3 h
[20] = target: 4-aminobutyrate aminotransferase, mitochondrial (Rattus norvegicus) (UniProt P50554); assay: In vitro percentage inhibition activity against GABA-T enzyme at a concentration of 0.625 uM after 4.5 h
Rattus norvegicus [21] = assay: Number of rats protected at a dose of 30 mg/Kg when given oral at 0.25 hr upon maximal electroshock seizure; Total number of rats = 4; format: functional
Rattus norvegicus [22] = assay: Effect on GABA level in rat whole brain concentration after 2 hr post-treatment at a dose of 100 mg/Kg when given i.p.; Control 48.4; format: functional
Rattus norvegicus [23] = assay: Number of rats protected at a dose of 30 mg/Kg when given oral at 1 hr upon maximal electroshock seizure; Total number of rats = 4; format: functional
Mus musculus [24] = assay: Post treatment activity score for CNS study using a actophotometer at a dose of 100 mg/Kg after 0.5 hr when given i.p., in mice (No. of animals 6); Control (24h before) 245
Rattus norvegicus [25] = assay: Effect on GABA level in rat whole brain concentration after 7 days post-treatment at a dose of 30 mg/Kg when given orally; Control 50.5; format: functional
[26] = target: 4-aminobutyrate aminotransferase, mitochondrial (Rattus norvegicus) (UniProt P50554); assay: In vitro percentage inhibition activity against GABA-T enzyme at a concentration of 5 uM after 4.5 h
Rattus norvegicus [27] = assay: Effective dose required for anticonvulsant activity when given orally at 2 h in rat upon maximal electroshock seizure; format: functional; conditions: po
Rattus norvegicus [28] = assay: Enzymatic activity to assess the increase in level of SGOT at a dose of 30 mg/Kg for 14 days when given p.o., in 6 rats; Control 73.1; format: functional
Mus musculus [29] = assay: Post treatment activity score for CNS study using a actophotometer at a dose of 100 mg/Kg after 1 hr when given i.p., in mice (No. of animals 6); Control (24h before) 268
[30] = target: 4-aminobutyrate aminotransferase, mitochondrial (Rattus norvegicus) (UniProt P50554); assay: In vitro percentage inhibition activity against GABA-T enzyme at a concentration of 5 uM after 6 h
Rattus norvegicus [31] = assay: Toxic dose observed for anticonvulsant activity when given orally at 2 hr in rat upon neurotoxicity seizure; format: functional; conditions: po
Rattus norvegicus [32] = assay: Enzymatic activity to assess the increase in level of SGPT at a dose of 30 mg/Kg for 14 days when given p.o., in 6 rats; Control 45.0; format: functional
Mus musculus [33] = assay: Post treatment activity score for CNS study using a actophotometer at a dose of 100 mg/Kg after 0.5 hr when given i.p., in mice (No. of animals 6); Control (24h before) 268
Mus musculus [34] = assay: Post treatment immobility time for CNS study using Porsolt's swimpool test at a dose of 100 mg/Kg after 1 hr when given i.p., in mice (No. of animals 6); Control (24h before) 146
[35] = target: 4-aminobutyrate aminotransferase, mitochondrial (Rattus norvegicus) (UniProt P50554); assay: In vitro percentage inhibition activity against GABA-T enzyme at a concentration of 5 uM after 3 h
Mus musculus [36] = assay: Mean sleeping time evaluated for CNS study using the pentobarbital-induced narcosis model at a dose of 100 mg/Kg when given i.p., in mice (No. of animals 6)

`Cc1cccc(C)c1NC(=O)N/N=C/c1ccc(N(C)C)cc1` was tested, and the Inhibition (Rattus norvegicus [1]) was 9%, the STY seizure (Mus musculus [2]) was 100 mg/kg and the Inhibition (Rattus norvegicus [3]) was 0%. For the same compound, the ED50 (Rattus norvegicus [4]) was 18.3 mg/kg, the Activity (Mus musculus [5]) was 124 and the PI (Rattus norvegicus [6]) was greater than 13.6. It also gave an MES (Mus musculus [7]) of 300 mg/kg, an Activity (Mus musculus [8]) of 207 and an Inhibition (Rattus norvegicus [9]) of 0%. The TD50 (Rattus norvegicus [10]) was greater than 250 mg/kg, the inhibition [11] was 0% and the NT (Mus musculus [12]) was 300 mg/kg. The PTZ seizure (Mus musculus [13]) was 300 mg/kg, the Activity (Rattus norvegicus [14]) was 4 and the Activity (Rattus norvegicus [15]) was 2. It also gave an Activity (Rattus norvegicus [16]) of 3, an MES (Mus musculus [17]) of 100 mg/kg and an STY seizure (Mus musculus [18]) of 100 mg/kg. The inhibition [19] was 0%, the inhibition [20] was 64% and the Activity (Rattus norvegicus [21]) was 1. For the same compound, the Activity (Rattus norvegicus [22]) was 75.5 ug/100mg of tissue, the Activity (Rattus norvegicus [23]) was 2 and the Activity (Mus musculus [24]) was 147. For the same compound, the Activity (Rattus norvegicus [25]) was 68.1 ug/100mg of tissue.
In the case of `Cc1ccc(/C=N/NC(=O)Nc2c(C)cccc2C)cc1`, the Inhibition (Rattus norvegicus [1]) is reported as 48%, the inhibition [26] is reported as 70% and the ED50 (Rattus norvegicus [27]) is reported as 33.1 mg/kg. It also gave an STY seizure (Mus musculus [2]) of 100 mg/kg, an Inhibition (Rattus norvegicus [3]) of 75% and an SGOT activity (Rattus norvegicus [28]) of 70.2 units/mL. For the same compound, the Activity (Mus musculus [29]) was 133, the PI (Rattus norvegicus [6]) was greater than 3.62 and the MES (Mus musculus [7]) was 300 mg/kg. For the same compound, the Inhibition (Rattus norvegicus [9]) was 32%, the PTZ seizure (Mus musculus [13]) was 300 mg/kg and the Activity (Rattus norvegicus [14]) was 3. The Activity (Rattus norvegicus [15]) was 2, the Activity (Rattus norvegicus [16]) was 4 and the MES (Mus musculus [17]) was 100 mg/kg. The STY seizure (Mus musculus [18]) was 100 mg/kg, the inhibition [30] was 0% and the Activity (Rattus norvegicus [21]) was 0. For the same compound, the TD50 (Rattus norvegicus [31]) was greater than 120 mg/kg, the Activity (Rattus norvegicus [22]) was 90.2 ug/100mg of tissue and the SGPT activity (Rattus norvegicus [32]) was 47.3 units/mL. The Activity (Mus musculus [33]) was 175, the Activity (Rattus norvegicus [23]) was 3 and the Activity (Rattus norvegicus [25]) was 100 ug/100mg of tissue. It also gave an Activity (Mus musculus [34]) of 225, an inhibition [35] of 55% and a Time (Mus musculus [36]) of 150 min.
